Experimental data reported in patent US20250346512A1, “WATER TREATMENT METHOD, WATER TREATMENT APPARATUS, SLIME INHIBITOR, AND CLEANING METHOD” (ORGANO CORPORATION, priority 2022, published 2025).

System: viable bacteria
Test: Contact of slime inhibitor with water containing viable bacteria
Type: cell-based
From the text: The slime inhibitor was brought into contact with water containing viable bacteria, and the number of viable bacteria before the contact with the slime inhibitor and the number of viable bacteria after contact with the slime inhibitor for one hour were examined.

In the case of OCl [Sodium hypochlorite, sodium hypochlorite], the “Number of viable bacteria before contact with slime inhibitor” value (baseline before contact) is reported as 10^6 and the “Number of viable bacteria after contact with slime inhibitor for one hour” value (slime inhibitor 0.1 mg/L as Cl2, contact one hour) is reported as 10^5.
